Patent US4638088A, “Pesticidal biphenylyloxy and biphenylylalkoxy aryl acyl urea compounds” (Union Carbide Corporation, priority 1984, dated 1987)

Experiments:
southern armyworm = assay: Southern Armyworm Leaf Spray Bait Test; type: in vivo; details: Spodoptera eridania, 120 h; for mortality at 2 ppm: read-out: Percent Control (after 5 days), Application Rate 2 ppm; for mortality at 8 ppm: read-out: Percent Control (after 5 days), Application Rate 8 ppm; for mortality at 500 ppm: read-out: Activity at 500 ppm, SAW, 500 ppm, Southern Armyworm larvae, up to five days; for mortality at 25 ppm: read-out: Percent Control (after 5 days), Application Rate 25 ppm; for mortality at 100 ppm: read-out: Percent Control (after 5 days), Application Rate 100 ppm; for mortality at 4 ppm: read-out: Percent Control (after 5 days), Application Rate 4 ppm; for mortality at 125 ppm: read-out: Percent Control (after 5 days), Application Rate 125 ppm
Description: (§1) Suspension of the test compounds were prepared by dissolving one gram of compound in 50 milliliters of acetone in which had been dissolved 0.1 gram (10 percent of the weight of compound) of an alkylphenoxy polyethoxyethanol surfactant, as an emulsifying or dispersing agent. The resulting solution was mixed into 150 milliliters of water to give roughly 200 milliliters of a suspension containing the compound in finely divided form. The thus-prepared stock suspension contained 0.5 percent by weight of compound. The test concentrations in parts per million by weight employed in the tests described hereinbelow were obtained by appropriate dilutions of the stock suspension with water. Certain of the test compounds were also prepared by dissolving 375 mg of compound in 7.5 ml of dimethylformamide. Fifteen milliliters of acetone containing 37.5 mg (10 percent of the weight of test compound) of an alkylphenoxy polyethoxyethanol surfactant, as a wetting/emulsifying/dispersing agent was added to the dimethylformamide solution. Fifty-two and one-half milliliters of water wasa mixed into the dimethylformamide-acetone mixture to give roughly 75 ml of a suspension containing the compound in solution or in finely divided form. The thus prepared stock suspension contained 0.5 percent by weight of compound. The test procedures were as follows:
Larvae of the southern armyworm (Spodoptera eridania, (Cram.), reared on Tendergreen bean plants at a temperature of 80°±5° F. and a relative humidity of 50±5 percent, constituted the test insects.
Potted Tendergreen bean plants of standarad height and age were placed on a revolving turntable and sprayed with 100-110 milliliters of test compound formulation by use of a DeVilbiss spray gun set at 40 psig air pressure. This application, which lasted 25 seconds, was sufficient to wet plants to run-off. As a control, 100-110 milliliters of a water-acetone-emulsifier solution containing no test compound was also sprayed on infested plants. When dry, the paired leaves were separated and each one was placed in a 9 centimeter Petri dish lined with moistened filter paper. Five randomly selected larvae were introduced into each dish and the dishes were closed. The closed dishes were labeled and held at 80°-85° F. for up to five days. Although the larvae could easily consume the whole leaf within twenty-four hours, no more food was added. Larvae which were unable to move the length of the body, even upon stimulation by prodding, were considered dead. Percent mortality was recorded for various concentration levels.

Mexican bean beetle = assay: Mexican Bean Beetle Leaf Spray Test; type: in vivo, Epilachna varivestic; details: Mexican Bean Beetle larvae, five days; for mortality at 500 ppm: Epilachna varivestis, 120 h, read-out: Activity at 500 ppm, MBB; for Activity at 500 ppm, MBB: 7200 min
Description: as §1
Fourth instar larvae of the Mexican bean beetle (Epilachna varivestic, Muls.), reared on Tendergreen bean plants at a temperature of 80°±5° F. and 50±5 percent relative humidity, were the test insects. For certain of the tests second instar larvae (weighting about 6 mg) of the Mexican bean beetle (Epilachna varaivestis, Muls.), reared on Sieva Pole lime bean plants at a temperature of 80°±5° F. and 50±5 percent relative humidity, were the test insects.
The test compounds were formulated by diluting the stock suspension with water to give a suspension containing 500 parts of test compound per million parts of final formulation. Potted Tendergreen bean plants of standard height and age were placed on a revolving turntable and sprayed with 100-110 milliliters of test compound formulation by use of a DeVilbiss spray gun set at 40 psig air pressure. This application, which lasted 25 seconds, was sufficient to wet plants to run-off. As a control, 100-110 milliliters of a water-acetone-emulsifier solution containing no test compound was also sprayed on infested plants. When dry, the paired leaves were separated and each was placed in a 9 centimeter Petri dish lined with moistened filter paper. Five randomly selected larvae were introduced into each dish, and the dishes were closed. The closed dishes were labeled and held at a temperature of 80°±5° F., for five days. Although the larvae could easily consume the leaf within 24 to 48 hours, no more food was added. Larvae which were unable to move the length of the body, even upon stimulation, were considered dead. Percent mortality was recorded for various concentration levels.

With `Cc1cc(NC(=O)NC(=O)c2c(F)cccc2F)c(C)c(Cl)c1Oc1ccccc1-c1ccccc1` [Example 33] the mortality at 2 ppm (southern armyworm) was 100% and the mortality at 8 ppm (southern armyworm) was 100%.
Work on `Cc1cc(NC(=S)NC(=O)c2ccccc2Cl)c(C)c(Cl)c1Oc1ccc(-c2ccccc2)cc1` [Example 12] yielded a mortality at 500 ppm (southern armyworm) of 0 to 30% and a mortality at 500 ppm (Mexican bean beetle) of 71 to 100%.
Work on `Cc1cc(NC(=O)NC(=O)c2ccccc2Cl)c(C)c(Cl)c1Oc1ccccc1-c1ccccc1` [Example 3] yielded a mortality at 500 ppm (southern armyworm) of 71 to 100% and a mortality at 500 ppm (Mexican bean beetle) of 71 to 100%.
Work on `O=C(NC(=S)Nc1cc(Cl)c(OCc2ccccc2-c2ccccc2)c(Cl)c1)c1ccccc1Cl` [Example 29] yielded a mortality at 500 ppm (southern armyworm) of 71 to 100% and a mortality at 500 ppm (Mexican bean beetle) of 71 to 100%.
Compound `Cc1cc(NC(=S)NC(=O)c2ccccc2Cl)c(C)c(Cl)c1Oc1ccccc1-c1ccccc1` [Example 7] has a mortality at 500 ppm (southern armyworm) of 71 to 100% and a mortality at 500 ppm (Mexican bean beetle) of 71 to 100%.
With `Cc1cc(NC(=S)NC(=O)c2ccccc2F)c(C)c(Cl)c1Oc1ccccc1-c1ccccc1` [Example 8] the “Activity at 500 ppm, MBB” value (Mexican bean beetle) was “A (71- 100% Kill)”.
For `O=C(NC(=O)c1cc(F)ccc1Cl)Nc1cc(Cl)c(Oc2cccc(-c3ccccc3)c2)c(Cl)c1` [Comparative Example G, reference compound], the mortality at 6.25 ppm (southern armyworm; read-out: Percent Control (after 5 days), Application Rate 6.25 ppm) was 0%, the mortality at 25 ppm (southern armyworm) was 0% and the mortality at 100 ppm (southern armyworm) was 0%.
Compound `Cc1cc(NC(=O)NC(=O)c2c(F)cccc2Cl)c(C)c(Cl)c1Oc1ccc(Br)cc1-c1ccccc1` [Example 26] has a mortality at 500 ppm (southern armyworm) of 71 to 100% and a mortality at 500 ppm (Mexican bean beetle) of 71 to 100%.
`Cc1cc(NC(=O)NC(=O)c2c(F)cccc2F)c(C)c(Cl)c1Oc1ccc(Br)cc1-c1ccccc1` [Example 25] gave a mortality at 500 ppm (southern armyworm) of 71 to 100% and a mortality at 500 ppm (Mexican bean beetle) of 71 to 100%.
`Cc1ccccc1C(=O)NC(=S)Nc1cc(C)c(Oc2ccccc2-c2ccccc2)c(Cl)c1C` [Example 9] gave a mortality at 500 ppm (southern armyworm) of 71 to 100% and a mortality at 500 ppm (Mexican bean beetle) of 71 to 100%.
In the case of `Cc1cc(NC(=O)NC(=O)c2ccccc2Cl)c(C)c(Cl)c1Oc1ccc(S(=O)(=O)c2ccc(Cl)cc2)cc1` [Comparative Example H, reference compound], the mortality at 2 ppm (southern armyworm) is reported as 0%, the mortality at 4 ppm (southern armyworm) is reported as 0% and the mortality at 8 ppm (southern armyworm) is reported as 10%.
`Cc1cc(Oc2ccccc2-c2ccccc2)c(Cl)cc1NC(=O)NC(=O)c1c(F)cccc1F` [Example 22] showed a mortality at 500 ppm (southern armyworm) of 71 to 100% and a mortality at 500 ppm (Mexican bean beetle) of 71 to 100%.
Compound `O=C(NC(=O)c1c(F)cccc1F)Nc1cc(Cl)c(OCc2ccccc2-c2ccccc2)c(Cl)c1` [Example 35] has a mortality at 1 ppm (southern armyworm; read-out: Percent Control (after 5 days), Application Rate 1 ppm) of 100% and a mortality at 4 ppm (southern armyworm) of 100%.
Work on `Cc1cc(Oc2ccccc2-c2ccccc2)c(Cl)cc1NC(=O)NC(=O)c1ccccc1C(F)(F)F` [Example 27] yielded a mortality at 500 ppm (southern armyworm) of 0 to 30% and a mortality at 500 ppm (Mexican bean beetle) of 0 to 30%.
`O=C(NC(=O)c1c(F)cccc1F)Nc1cc(Cl)c(OCc2ccccc2-c2ccccc2)c(Cl)c1` [Example 28] gave a mortality at 500 ppm (southern armyworm) of 71 to 100% and a mortality at 500 ppm (Mexican bean beetle) of 71 to 100%.
`O=C(NC(=O)c1c(F)cccc1F)Nc1cc(Cl)c(Oc2ccccc2-c2ccccc2)c(Cl)c1` [Example 31] showed a mortality at 500 ppm (southern armyworm) of 71 to 100% and a mortality at 500 ppm (Mexican bean beetle) of 71 to 100%.
In the case of `Cc1cc(NC(=O)NC(=O)c2ccccc2Cl)c(C)c(Cl)c1Oc1ccc(Br)cc1-c1ccccc1` [Example 24], the mortality at 500 ppm (southern armyworm) is reported as 71 to 100% and the mortality at 500 ppm (Mexican bean beetle) is reported as 0 to 30%.
`Cc1cc(NC(=S)NC(=O)c2ccccc2F)c(C)c(Cl)c1Oc1ccccc1-c1ccccc1` [Example 34] was tested, and the mortality at 2 ppm (southern armyworm) was 100% and the mortality at 8 ppm (southern armyworm) was 100%.
For `Cc1cc(NC(=O)NC(=O)c2ccccc2Cl)c(C)c(Cl)c1Oc1ccc(-c2ccccc2)cc1` [Example 10], the mortality at 500 ppm (southern armyworm) was 0 to 30% and the mortality at 500 ppm (Mexican bean beetle) was 71 to 100%.
For `Cc1cc(NC(=O)NC(=O)c2c(F)cccc2Cl)c(C)c(Cl)c1Oc1ccc(Cl)cc1-c1ccccc1` [Example 19], the mortality at 500 ppm (southern armyworm) was 71 to 100% and the mortality at 500 ppm (Mexican bean beetle) was 71 to 100%.
Work on `Cc1cc(NC(=O)NC(=O)c2c(Cl)cccc2Cl)c(C)c(Cl)c1Oc1ccccc1-c1ccccc1` [Example 4] yielded a mortality at 500 ppm (southern armyworm) of 71 to 100% and a mortality at 500 ppm (Mexican bean beetle) of 71 to 100%.
Work on `Cc1cc(NC(=O)NC(=O)c2c(F)cccc2F)c(C)c(Cl)c1Oc1ccc(-c2ccccc2)cc1` [Example 11] yielded a mortality at 500 ppm (southern armyworm) of 71 to 100% and a mortality at 500 ppm (Mexican bean beetle) of 71 to 100%.
With `Cc1ccc(Oc2ccc(NC(=O)NC(=O)c3ccccc3Cl)cc2Cl)c(C)c1` [Comparative Example B, reference compound] the mortality at 8 ppm (southern armyworm) was 20%, the mortality at 21 ppm (southern armyworm; read-out: Percent Control (after 5 days), Application Rate 21 ppm) was 30% and the mortality at 125 ppm (southern armyworm) was 100%.
`O=C(NC(=O)c1ccccc1Cl)Nc1cc(Cl)c(Oc2ccccc2-c2ccccc2)c(Cl)c1` [Example 32] showed a mortality at 500 ppm (southern armyworm) of 71 to 100% and a mortality at 500 ppm (Mexican bean beetle) of 71 to 100%.
`Cc1cc(NC(=O)NC(=O)c2c(F)cccc2Cl)c(C)c(Cl)c1Oc1ccc(-c2ccccc2)cc1Cl` [Example 16] showed a mortality at 500 ppm (southern armyworm) of 71 to 100% and a mortality at 500 ppm (Mexican bean beetle) of 71 to 100%.
Compound `Cc1cc(NC(=S)NC(=O)c2ccccc2Cl)c(C)c(Cl)c1Oc1ccc(Br)cc1-c1ccccc1` [Example 13] has a mortality at 500 ppm (southern armyworm) of 0 to 30% and a mortality at 500 ppm (Mexican bean beetle) of 0 to 30%.
With `Cc1cc(NC(=O)NC(=O)c2c(F)cccc2F)c(C)c(Cl)c1Oc1ccccc1-c1ccccc1` [Example 6] the mortality at 500 ppm (southern armyworm) was 71 to 100% and the mortality at 500 ppm (Mexican bean beetle) was 71 to 100%.
`Cc1cc(NC(=O)NC(=O)c2ccccc2Cl)c(C)c(Cl)c1Oc1ccc(-c2ccccc2)cc1Cl` [Example 1, 1-(2-chlorobenzoyl)-3-[2,5-dimethyl-3-chloro-4-(2-chloro-4-phenylphenoxy)phenyl]urea] showed a mortality at 500 ppm (southern armyworm) of 71 to 100% and a mortality at 500 ppm (Mexican bean beetle) of 71 to 100%.
`Cc1cc(Oc2ccccc2-c2ccccc2)c(Cl)cc1NC(=O)NC(=O)c1ccccc1Cl` [Example 21] showed a mortality at 500 ppm (southern armyworm) of 71 to 100% and a mortality at 500 ppm (Mexican bean beetle) of 71 to 100%.
With `Cc1cc(Oc2ccccc2-c2ccccc2)c(Cl)cc1NC(=S)NC(=O)c1ccccc1Cl` [Example 23] the mortality at 500 ppm (southern armyworm) was 71 to 100% and the mortality at 500 ppm (Mexican bean beetle) was 71 to 100%.
With `O=C(NC(=O)c1ccccc1Cl)Nc1ccc(Oc2ccc(Oc3ccccc3)cc2)cc1` [E, reference compound] the mortality at 25 ppm (southern armyworm) was 0% and the mortality at 100 ppm (southern armyworm) was 0%.
`Cc1cc(NC(=O)NC(=O)c2ccccc2F)c(C)c(Cl)c1Oc1ccc(-c2ccccc2)cc1Cl` [Example 15] gave a mortality at 500 ppm (southern armyworm) of 71 to 100% and a mortality at 500 ppm (Mexican bean beetle) of 71 to 100%.
Work on `O=C(NC(=O)c1ccccc1Cl)Nc1cc(Cl)c(OCc2ccccc2-c2ccccc2)c(Cl)c1` [Example 2, 1-(2-chlorobenzoyl)-3-[3,5-dichloro-4-(2-phenylphenylmethoxy)phenyl]urea] yielded a mortality at 500 ppm (southern armyworm) of 71 to 100% and a mortality at 500 ppm (Mexican bean beetle) of 71 to 100%.
In the case of `Cc1cc(NC(=S)NC(=O)c2ccccc2F)c(C)c(Cl)c1Oc1ccccc1-c1ccccc1` [Example 30], the “Activity at 500 ppm, MBB” value (Mexican bean beetle) is reported as “C (0- 30% Kill)”.
`O=C(NC(=O)c1ccc(F)cc1Cl)Nc1cc(Cl)c(Oc2ccc(-c3ccccc3)cc2)c(Cl)c1` [Comparative Example F, reference compound] gave a mortality at 6.5 ppm (southern armyworm; read-out: Percent Control (after 5 days), Application Rate 6.5 ppm) of 0%, a mortality at 25 ppm (southern armyworm) of 0% and a mortality at 100 ppm (southern armyworm) of 0%.
`O=C(NC(=O)c1c(F)cccc1F)Nc1ccc(Oc2ccc(Oc3ccccc3)cc2)cc1` [D, reference compound] showed a mortality at 25 ppm (southern armyworm) of 0% and a mortality at 100 ppm (southern armyworm) of 0%.
Work on `O=C(NC(=O)c1c(F)cccc1F)Nc1cc(Cl)c(Oc2cccc3ccccc23)c(Cl)c1` [Comparative Example C, reference compound] yielded a mortality at 8 ppm (southern armyworm) of 0%, a mortality at 31 ppm (southern armyworm; read-out: Percent Control (after 5 days), Application Rate 31 ppm) of 40% and a mortality at 125 ppm (southern armyworm) of 100%.
